Source: publication PMC11219871, “Epigenetic-based differentiation therapy for Acute Myeloid Leukemia” (Nature Communications, 2024)
Where “and” joins values, the source holds several entries; their conditions need not be identical. Identical values can stand only once.

Assays:
[1] = target: T1, ATAD2A (Homo sapiens, UniProt Q6PL18); assay: Epigenetic panel (BPS Bioscience); assay type: binding
T1 construct: purchased BPS Bioscience; Eurofins (HDAC4, 5, 7-11)
From the text: The selectivity of CM-444 and CM-1758 against other epigenetic targets, including histone demethylase (JMJD2A, JMJD2B, JMJD2C, JMJD2D, JMJD2E, JMJD3, JMJD1A, LSD1, Jarid1A, Jarid1B, Jarid1C, FBXL10, FBXL11, JHDM1D, JMJD1B, PHF8, LSD2 and UTX); histone acetyltransferases (GCN5, P300); histone methyltransferases (G9a, GLP, MLL1, SET7/9, SUV39H1, SUV39H2, PRMT1, PRMT3, PRMT4, PRMT5, PRMT6, PRMT8, PRMT9, NSD1, NSD2, EZH1, EZH2, SETDB1, SETD2, SET8, SUV4-20H1, SMYD2, SMYD3, DOT1L, EZH2 (A677G), EZH2 (A677G), EZH2 (A738T), EZH2 (Y641S), EZH2 (P132S), EZH2 (Y641C), EZH2 (Y641F), EZH2 (Y641H), EZH2 (Y641N)); bromodomains (ATAD2B, ATAD2A, BRD1, BRD9, BPTF/FALZ, CeCR2, BRPF3, BRD3 (BD1 + BD2), BAZ2B, WDR9, TAF1 (BD2), TAF1L (BD2), TAF1L (BD1 + BD2), BRD2 (BD1), BRD2 (BD2), BRD2 (BD1 + BD2), BRD3 (BD1), BRD3 (BD2), BRD4 (BD1), BRD4 (BD2), BRD4 (BD1 + BD2), BRDT (BD1), BRDT (BD1 + BD2), CREBBP, SMARCA2A, SMARCA4/BRG1); DNA methyltranferases (DNMT1, DNMT3A/3L and DNMT3B/3L), and sirtuin histone deacetylases (SIRT1, SIRT2, SIRT3, SIRT5 and SIRT6), were determined by BPS Bioscience (http://www.bpsbioscience.com/index.ph). Binding experiments were performed in duplicate at a concentration of 10 μM.

[2] = target: HDAC1 (Homo sapiens, UniProt Q13547); assay: HDAC enzymatic assay, fluorescence-labeled substrate; assay type: biochemical
Chain of HDAC1 (Q13547 whole entry): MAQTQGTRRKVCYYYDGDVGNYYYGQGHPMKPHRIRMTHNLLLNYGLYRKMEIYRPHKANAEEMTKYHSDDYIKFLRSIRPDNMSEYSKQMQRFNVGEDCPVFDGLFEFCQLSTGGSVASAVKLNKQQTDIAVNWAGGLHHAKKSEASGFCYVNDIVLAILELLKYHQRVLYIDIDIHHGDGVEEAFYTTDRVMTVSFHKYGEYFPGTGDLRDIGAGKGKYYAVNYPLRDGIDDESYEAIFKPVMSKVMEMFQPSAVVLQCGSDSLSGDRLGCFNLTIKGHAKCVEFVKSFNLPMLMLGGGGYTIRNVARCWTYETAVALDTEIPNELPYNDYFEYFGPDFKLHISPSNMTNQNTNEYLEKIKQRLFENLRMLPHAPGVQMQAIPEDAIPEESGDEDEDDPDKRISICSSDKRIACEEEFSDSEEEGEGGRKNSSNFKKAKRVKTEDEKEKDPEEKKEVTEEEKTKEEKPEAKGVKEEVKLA

[3] = test system: HL-60; assay: q-RT-PCR of MYC, CDKN2A, CDKN1A, GATA2, TAL1, CEBPA, SPI1; assay type: cell-based, human
Method: (§1) RNA was extracted with TRIzol Reagent (Invitrogen) according to the manufacturer’s instructions. First, cDNA was synthesized from 1 µg of total RNA using the PrimeScript RT reagent Kit (Perfect Real Time) (Cat No RR037A, TaKaRa) following the manufacturer’s instructions. The quality of cDNA was checked by a multiplex PCR that amplifies PBGD, ABL, BCR and β2-MG genes. […] The following program conditions were used for the q-PCR: 50 °C for 2 min, 95 °C for 60 s following by 45 cycles at 95 °C for 15 s and 60 °C for 60 s; melting program, one cycle at 95 °C for 15 s, 40 °C for 60 s, and 95 °C for 15 s. The relative expression of each gene was quantified by the […] method using the gene GUS as an endogenous control. The sequence of primers used can be found in Supplementary Table 10.

[4] = test system: MOLM-13; assay: as above; assay type: cell-based, human
Method: as §1

[5] = test system: ML-2; assay: as above; assay type: cell-based, human
Method: as §1

[6] = test system: MV4-11; assay: as above; assay type: cell-based, human
Method: as §1

[7] = target: HDAC3 (Homo sapiens, UniProt O15379); assay: HDAC enzymatic assay, fluorescence-labeled substrate; assay type: biochemical; details: 10 µM, source data of Fig. 1B
Chain of HDAC3 (O15379 whole entry): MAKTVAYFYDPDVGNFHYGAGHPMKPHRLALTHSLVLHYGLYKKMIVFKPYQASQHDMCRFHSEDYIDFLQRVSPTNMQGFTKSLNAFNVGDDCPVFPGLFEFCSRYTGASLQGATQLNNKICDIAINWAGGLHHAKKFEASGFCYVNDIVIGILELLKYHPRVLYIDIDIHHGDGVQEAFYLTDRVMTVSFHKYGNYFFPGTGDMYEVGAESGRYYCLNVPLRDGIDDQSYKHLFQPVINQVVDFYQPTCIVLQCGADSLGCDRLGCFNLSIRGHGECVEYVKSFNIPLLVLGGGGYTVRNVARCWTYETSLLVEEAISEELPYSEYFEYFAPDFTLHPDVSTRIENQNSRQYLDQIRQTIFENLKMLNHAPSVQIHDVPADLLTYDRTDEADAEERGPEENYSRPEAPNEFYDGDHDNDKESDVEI
Chain of HDAC3 (Q9Y618 395-489 partner limits assumed): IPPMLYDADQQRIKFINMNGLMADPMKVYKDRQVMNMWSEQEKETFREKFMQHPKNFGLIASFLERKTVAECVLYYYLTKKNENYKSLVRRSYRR

[8] = HL-60, replicates 1-3 (Figure 2E)
[9] = HL-60, replicates 1-3 (Figure 2G)
[10] = HL-60 treated daily for 48 h, replicates (Fig 6F)
[11] = MOLM-13, daily treatment for 48 h, replicates 1-3
[12] = ML-2, replicates 1-3 (Figure 2E)
[13] = ML-2, replicates 1-3 (Figure 2G)
[14] = ML-2 treated daily for 48 h, replicates (Fig 6G)
[15] = MV4-11, daily treatment for 48 h, replicates 1-3

T1 sequence (Q6PL18 whole entry): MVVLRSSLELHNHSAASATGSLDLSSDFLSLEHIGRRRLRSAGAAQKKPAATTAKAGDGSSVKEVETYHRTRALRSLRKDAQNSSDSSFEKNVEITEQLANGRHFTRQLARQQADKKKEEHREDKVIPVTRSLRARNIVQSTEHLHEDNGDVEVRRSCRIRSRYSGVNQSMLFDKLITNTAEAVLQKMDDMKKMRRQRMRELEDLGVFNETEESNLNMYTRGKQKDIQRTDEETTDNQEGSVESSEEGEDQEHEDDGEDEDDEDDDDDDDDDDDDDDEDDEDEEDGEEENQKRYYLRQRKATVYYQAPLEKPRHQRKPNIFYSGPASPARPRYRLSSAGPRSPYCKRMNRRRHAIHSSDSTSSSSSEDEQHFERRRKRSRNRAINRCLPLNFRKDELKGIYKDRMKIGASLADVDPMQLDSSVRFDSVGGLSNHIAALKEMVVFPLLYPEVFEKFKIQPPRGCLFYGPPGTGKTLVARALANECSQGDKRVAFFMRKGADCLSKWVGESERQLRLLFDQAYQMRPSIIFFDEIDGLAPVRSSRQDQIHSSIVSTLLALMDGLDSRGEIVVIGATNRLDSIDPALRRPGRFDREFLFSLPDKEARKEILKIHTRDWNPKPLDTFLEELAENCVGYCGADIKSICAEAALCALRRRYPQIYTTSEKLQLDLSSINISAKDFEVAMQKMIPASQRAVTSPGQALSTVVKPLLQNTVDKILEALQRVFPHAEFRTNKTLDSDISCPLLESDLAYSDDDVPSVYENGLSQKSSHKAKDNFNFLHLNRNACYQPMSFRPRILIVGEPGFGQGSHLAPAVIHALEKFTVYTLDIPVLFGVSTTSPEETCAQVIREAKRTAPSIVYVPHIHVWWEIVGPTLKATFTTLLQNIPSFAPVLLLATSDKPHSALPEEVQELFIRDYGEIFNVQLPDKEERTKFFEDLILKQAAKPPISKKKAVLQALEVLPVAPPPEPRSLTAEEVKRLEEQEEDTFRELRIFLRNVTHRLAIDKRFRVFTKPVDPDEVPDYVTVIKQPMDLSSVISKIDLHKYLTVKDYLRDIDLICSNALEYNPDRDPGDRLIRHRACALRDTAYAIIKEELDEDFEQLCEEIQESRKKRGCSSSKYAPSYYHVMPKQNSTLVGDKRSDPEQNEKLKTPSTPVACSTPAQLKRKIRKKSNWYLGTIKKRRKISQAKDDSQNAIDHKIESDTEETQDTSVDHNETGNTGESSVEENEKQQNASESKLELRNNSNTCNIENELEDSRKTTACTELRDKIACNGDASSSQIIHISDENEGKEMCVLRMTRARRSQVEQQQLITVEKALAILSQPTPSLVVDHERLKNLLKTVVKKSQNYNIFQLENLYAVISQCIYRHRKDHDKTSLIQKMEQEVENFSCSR

Structure (SMILES): COc1cc2nc(-c3ccc(C)o3)cc(NCC3CCN(c4ncc(C(=O)NO)cn4)CC3)c2cc1OC [CM-444, 2-[4-[[[6,7-dimethoxy-2-(5-methyl-2-furyl)-4-quinolyl]amino]methyl]-1-piperidyl]pyrimidine-5-carbohydroxamic acid]
- inhibition at 10 µM [1]: 0%
- inhibition at 10 µM ([2]; 10 µM, source data of Fig. 1B): 90%
- IC50 ([2]; read-out: IC50): 6.55 nM
- q-PCR of CDKN1A (p21), log10 (2-ΔΔCt) [3, 8]: 1.981 and 1.653 and 1.57
- q-PCR of CDKN2A (p16), log10 (2-ΔΔCt) [3, 8]: 0.3125 and 0.3822 and 0.4047
- q-PCR of MYC, log10 (2-ΔΔCt) [3, 8]: -0.5893 and -0.4826 and -0.451
- q-PCR of CEBPA, log10 (2-ΔΔCt) [3, 9]: 0.7569 and 0.6258 and 0.5709
- q-PCR of GATA2, log10 (2-ΔΔCt) [3, 9]: 1.013 and 0.858 and 0.8451
- q-PCR of SPI1 (PU.1), log10 (2-ΔΔCt) [3, 9]: 0.7127 and 0.6825 and 0.8316
- q-PCR of TAL1 (SCL), log10 (2-ΔΔCt) [3, 9]: 0.1258 and 0.2369 and 0.3382
- q-PCR of CEBPA [3, 10]: 1.462 log10 (2-ΔΔCt) and 1.7754 log10 (2-ΔΔCt) and 1.81 log10 (2-ΔΔCt)
- q-PCR of GATA2 [3, 10]: 0.8764 log10 (2-ΔΔCt) and 0.8459 log10 (2-ΔΔCt) and 0.7844 log10 (2-ΔΔCt)
- q-PCR of MYC [3, 10]: -0.6475 log10 (2-ΔΔCt) and -0.7277 log10 (2-ΔΔCt) and -0.6044 log10 (2-ΔΔCt)
- q-PCR of SPI1 [3, 10]: 0.6661 log10 (2-ΔΔCt) and 0.715 log10 (2-ΔΔCt) and 0.8576 log10 (2-ΔΔCt)
- q-PCR of TAL1 [3, 10]: 2.167 log10 (2-ΔΔCt) and 1.539 log10 (2-ΔΔCt) and 2.185 log10 (2-ΔΔCt)
- q-PCR of CEBPA, log10 (2-ΔΔCt) [4, 11]: 2.5418 and 2.486 and 2.37
- q-PCR of GATA2, log10 (2-ΔΔCt) [4, 11]: 1.451 and 1.32 and 1.2001
- q-PCR of MYC, log10 (2-ΔΔCt) [4, 11]: -0.5166 and -0.6125 and -0.4922
- q-PCR of SPI1, log10 (2-ΔΔCt) [4, 11]: 0.3255 and 0.2581 and 0.1964
- q-PCR of TAL1, log10 (2-ΔΔCt) [4, 11]: 1.582 and 1.681 and 1.836
- CDKN1A log10 (2-ΔΔCt) ([4]; MOLM-13, q-PCR): 0.9026 and 0.7158 and 0.9504
- CDKN2A log10 (2-ΔΔCt) ([4]; MOLM-13, q-PCR): 0.7237 and 0.7926 and 0.8396
- CEBPA log10 (2-ΔΔCt) ([4]; MOLM-13, q-PCR): 1.789 and 1.635 and 1.622
- GATA2 log10 (2-ΔΔCt) ([4]; MOLM-13, q-PCR): 0.9826 and 1.026 and 1.05
- MYC log10 (2-ΔΔCt) ([4]; MOLM-13, q-PCR): -0.5821 and -0.5713 and -0.4455
- SPI1 log10 (2-ΔΔCt) ([4]; MOLM-13, q-PCR): 0.02369 and 0.04258 and 0.1281
- TAL1 log10 (2-ΔΔCt) ([4]; MOLM-13, q-PCR): 1.526 and 1.626 and 1.825
- q-PCR of CDKN1A (p21), log10 (2-ΔΔCt) [5, 12]: 1.227 and 1.353 and 1.599
- q-PCR of CDKN2A (p16), log10 (2-ΔΔCt) [5, 12]: 0.6515 and 0.5026 and 0.5454
- q-PCR of MYC, log10 (2-ΔΔCt) [5, 12]: -1.502 and -1.26 and -1.4
- q-PCR of CEBPA, log10 (2-ΔΔCt) [5, 13]: 0.9236 and 1.002 and 0.879
- q-PCR of GATA2, log10 (2-ΔΔCt) [5, 13]: 2.413 and 2.636 and 2.689
- q-PCR of SPI1 (PU.1), log10 (2-ΔΔCt) [5, 13]: 0.5237 and 0.6236 and 0.7619
- q-PCR of TAL1 (SCL), log10 (2-ΔΔCt) [5, 13]: 0.9258 and 1.226 and 0.9453
- q-PCR of CEBPA [5, 14]: 1.15 log10 (2-ΔΔCt) and 1.105 log10 (2-ΔΔCt) and 1.112 log10 (2-ΔΔCt)
- q-PCR of GATA2 [5, 14]: 1.841 log10 (2-ΔΔCt) and 1.852 log10 (2-ΔΔCt) and 1.8708 log10 (2-ΔΔCt)
- q-PCR of MYC [5, 14]: -0.8138 log10 (2-ΔΔCt) and -0.7958 log10 (2-ΔΔCt) and -0.772 log10 (2-ΔΔCt)
- q-PCR of SPI1 [5, 14]: 0.6179 log10 (2-ΔΔCt) and 0.715 log10 (2-ΔΔCt) and 0.7068 log10 (2-ΔΔCt)
- q-PCR of TAL1 [5, 14]: 0.9832 log10 (2-ΔΔCt) and 1.433 log10 (2-ΔΔCt) and 0.7663 log10 (2-ΔΔCt)
- q-PCR of CEBPA, log10 (2-ΔΔCt) [6, 15]: 1.345 and 1.361 and 1.2654
- q-PCR of GATA2, log10 (2-ΔΔCt) [6, 15]: 2.051 and 2.02 and 2.0001
- q-PCR of MYC, log10 (2-ΔΔCt) [6, 15]: -0.5124 and -0.645 and -0.6461
- q-PCR of SPI1, log10 (2-ΔΔCt) [6, 15]: 0.5839 and 0.521 and 0.5293
- q-PCR of TAL1, log10 (2-ΔΔCt) [6, 15]: 0.7218 and 0.3689 and 0.9897
- CDKN1A log10 (2-ΔΔCt) ([6]; MV4-11, q-PCR): 0.9858 and 0.7237 and 0.8689
- CDKN2A log10 (2-ΔΔCt) ([6]; MV4-11, q-PCR): 1.137 and 1.036 and 1.001
- CEBPA log10 (2-ΔΔCt) ([6]; MV4-11, q-PCR): 1.693 and 1.502 and 1.597
- MYC log10 (2-ΔΔCt) ([6]; MV4-11, q-PCR): -0.5932 and -0.4926 and -0.5131
- SPI1 log10 (2-ΔΔCt) ([6]; MV4-11, q-PCR): 0.3258
- TAL1 log10 (2-ΔΔCt) ([6]; MV4-11, q-PCR): 0.527 and 0.4921 and 0.4657
- inhibition at 10 µM [7]: 90%
